Test results reported in paper PMC6668441, “Comparative Study of Subcutaneous and Orthotopic Mouse Models of Prostate Cancer: Vascular Perfusion, Vasculature Density, Hypoxic Burden and BB2r-Targeting Efficacy” (Scientific Reports, 2019).

What was measured:
[1] = test system: subcutaneous PC-3 xenografts; experiment: Biodistribution, perfusion tracer, subcutaneous PC-3 xenograft model; type: in vivo; conditions: 5 min p.i., mean ± SD
Description: (§1) For the subcutaneous model, 5-week old female SCID mice were inoculated in the flanks with 5 × 10^6 PC-3 cells (American Type Culture Collection (ATCC), VA) in Matrigel®. The tumor size was monitored by caliper. For the generation of the orthotopic model, the PC-3-Luc cells were selected by 0.5 µg/mL puromycin twice before inoculation. The male 6-weeks SCID mice were anesthetized, the muscles of the abdomen area were cut after retracting the skin, and the prostate gland exposed. 50 μL of PC-3-Luc cell suspension at 0.5 × 10^6/mL in Matrigel® was injected into a dorsal prostatic lobe. The wound was closed in two layers and the skin was clipped. Animals were given analgesic drugs for 3 days and the tumors were monitored by an IVIS optical imaging system.
(§2) The mice were injected, monitored and dissected in the lab with the temperature of 23 °C and 17% relative humidity. All animals were awake until sacrifice. The body weight, tumor volume and tumor luminescence of the mice were recorded every three days. At four-to-seven weeks post-xenograft implantation, the mice were divided into three groups by tumor volume: <300, 300–700 and >700 mm^3 in both animal models. […] Each mouse (average weight: 20 g for female mice and 25 g for male mice) was treated with pimonidazole solution (80 mg/kg in PBS) via intraperitoneal injection. […] After an additional 1 h, the mice were injected intravenously with a PBS solution containing 10 µCi (370 kBq) of [^99mTc]NaTcO4 and 15 mg/kg Hoechst 33342. The animals were sacrificed 5 minutes later, and their tissues collected. The excised tissues were weighed, the radioactivity for each tissue was measured by γ-counter and the percentage injected dose per gram (%ID/g) was calculated for each tissue. […]
The normal PC-3 cells and PC-3-Luc were cultured in our laboratory, as per ATCC protocols, in Ham’s F-12K medium
containing 10% FBS, 2.5 mM L-glutamine, 15 mM HEPES and 0.5 mM sodium pyruvate. Cells were incubated at 37 °C
(§3) All animal experiments were performed in accordance with the NIH animal use guideline and protocol approved by the […]

[2] = test system: orthotopic PC-3 xenografts; experiment: Biodistribution, perfusion tracer, orthotopic PC-3 xenograft model; type: in vivo; conditions: for blood uptake / bone uptake / brain uptake / excretion (urine and fecal material) / heart uptake / kidney uptake / large intestine uptake / liver uptake / lung uptake / muscle uptake / pancreas uptake / small intestine uptake / spleen uptake / stomach uptake / tumor uptake (perfusion): orthotopic model, 10 µCi i.v., 5 min p.i., mean ± SD
Description: as §1, §2
Establishment of Stably Transfected PC-3-Luc Cells
To generate the PC-3-Luc cells, we utilized pre-made lentivirus particles encoding luciferase and GFP (EF1a-Luciferase (firefly)-2A-GFP (Puro), AMSBIO) for transfection. Briefly, normal PC-3 cells were seeded in a 24-well plate using 0.5 mL of medium containing 0.5 × 10^5 cells/mL and incubated overnight. The medium was removed and replaced with 0.5 mL of fresh medium pre-mixed with 2.5 ȝL TransduxTM. To each well was added 2 ȝL of the lentivirus particle solution and swirled to mix. The plate was returned to the incubator and cultured for 3 days. Once the cells grew to confluence, they were harvested and transferred to larger plates (from 6-well plates to 60 mm dishes). 1.5 mL of suspended cells in PBS at a concentration of 5 × 10^6/mL was sorted by the FACS method to give the GFP positive (PC-3-Luc) cells that were returned to culture for in vitro and in vivo studies.
The normal PC-3 cells and PC-3-Luc were cultured in our laboratory, as per ATCC protocols, in Ham’s F-12K medium containing 10% FBS, 2.5 mM L-glutamine, 15 mM HEPES and 0.5 mM sodium pyruvate. Cells were incubated at 37 °C […]
as §3

[3] = tumor volume 300-700 mm^3, 10 µCi i.v.
[4] = tumor volume <300 mm^3, 10 µCi i.v.
[5] = tumor volume >700 mm^3, 10 µCi i.v.

Structure (SMILES): [Na+].[O]=[Tc](=[O])(=[O])[O-] [[^99mTc]TcO4^−, sodium pertechnetate]
- blood uptake [1, 3]: 0.88 ± 0.34 %ID/g
- bone uptake [1, 3]: 0.16 ± 0.06 %ID/g
- brain uptake [1, 3]: 0.03 ± 0.02 %ID/g
- excretion (urine and fecal material) [1, 3]: 85.78 ± 9.65 %ID
- heart uptake [1, 3]: 0.22 ± 0.11 %ID/g
- kidney uptake [1, 3]: 0.53 ± 0.19 %ID/g
- large intestine uptake [1, 3]: 0.43 ± 0.47 %ID/g
- liver uptake [1, 3]: 0.41 ± 0.19 %ID/g
- lung uptake [1, 3]: 0.49 ± 0.21 %ID/g
- muscle uptake [1, 3]: 0.11 ± 0.04 %ID/g
- pancreas uptake [1, 3]: 3.30 ± 2.30 %ID/g
- small intestine uptake [1, 3]: 0.61 ± 0.43 %ID/g
- spleen uptake [1, 3]: 0.87 ± 0.74 %ID/g
- stomach uptake [1, 3]: 2.41 ± 1.25 %ID/g
- tumor uptake (perfusion) [1, 3]: 0.68 ± 0.49 %ID/g
- blood uptake [1, 4]: 1.01 ± 0.06 %ID/g
- bone uptake [1, 4]: 0.34 ± 0.27 %ID/g
- brain uptake [1, 4]: 0.06 ± 0.04 %ID/g
- excretion (urine and fecal material) [1, 4]: 83.64 ± 9.63 %ID
- heart uptake [1, 4]: 0.40 ± 0.24 %ID/g
- kidney uptake [1, 4]: 0.66 ± 0.33 %ID/g
- large intestine uptake [1, 4]: 0.44 ± 0.35 %ID/g
- liver uptake [1, 4]: 0.67 ± 0.43 %ID/g
- lung uptake [1, 4]: 0.74 ± 0.27 %ID/g
- muscle uptake [1, 4]: 0.19 ± 0.11 %ID/g
- pancreas uptake [1, 4]: 2.26 ± 1.95 %ID/g
- small intestine uptake [1, 4]: 0.52 ± 0.38 %ID/g
- spleen uptake [1, 4]: 1.35 ± 1.21 %ID/g
- stomach uptake [1, 4]: 2.26 ± 1.06 %ID/g
- tumor uptake (perfusion) [1, 4]: 0.51 ± 0.31 %ID/g
- blood uptake [1, 5]: 2.61 ± 1.54 %ID/g
- bone uptake [1, 5]: 0.34 ± 0.31 %ID/g
- brain uptake [1, 5]: 0.06 ± 0.05 %ID/g
- excretion (urine and fecal material) [1, 5]: 82.76 ± 12.78 %ID
- heart uptake [1, 5]: 0.43 ± 0.38 %ID/g
- kidney uptake [1, 5]: 1.11 ± 0.92 %ID/g
- large intestine uptake [1, 5]: 0.53 ± 0.53 %ID/g
- liver uptake [1, 5]: 0.85 ± 0.77 %ID/g
- lung uptake [1, 5]: 1.24 ± 1.00 %ID/g
- muscle uptake [1, 5]: 0.21 ± 0.20 %ID/g
- pancreas uptake [1, 5]: 6.22 ± 6.53 %ID/g
- small intestine uptake [1, 5]: 0.53 ± 0.43 %ID/g
- spleen uptake [1, 5]: 0.43 ± 0.51 %ID/g
- stomach uptake [1, 5]: 3.03 ± 2.52 %ID/g
- tumor uptake (perfusion) [1, 5]: 0.86 ± 0.37 %ID/g
- tumor uptake (perfusion) ([1]; tumor volume >700 mm^3, 10 µCi i.v., listed as [99mTc]TcO4-): 0.86 ± 0.35 %ID/g
- stomach uptake, orthotopic versus subcutaneous model ([2]; Table S1): approximately 8 fold
- tumor perfusion, orthotopic versus subcutaneous model ([2]; across tumor volume groups): 3.7–4.3 fold
- blood uptake ([2]; tumor volume 300-700 mm^3): 3.51 ± 1.28 %ID/g
- bone uptake ([2]; tumor volume 300-700 mm^3): 1.27 ± 0.68 %ID/g
- brain uptake ([2]; tumor volume 300-700 mm^3): 0.18 ± 0.18 %ID/g
- excretion (urine and fecal material) ([2]; tumor volume 300-700 mm^3): 37.55 ± 14.08 %ID
- heart uptake ([2]; tumor volume 300-700 mm^3): 1.20 ± 0.63 %ID/g
- kidney uptake ([2]; tumor volume 300-700 mm^3): 2.25 ± 2.25 %ID/g
- large intestine uptake ([2]; tumor volume 300-700 mm^3): 2.24 ± 0.57 %ID/g
- liver uptake ([2]; tumor volume 300-700 mm^3): 2.92 ± 0.95 %ID/g
- lung uptake ([2]; tumor volume 300-700 mm^3): 2.78 ± 1.27 %ID/g
- muscle uptake ([2]; tumor volume 300-700 mm^3): 0.59 ± 0.18 %ID/g
- pancreas uptake ([2]; tumor volume 300-700 mm^3): 5.17 ± 5.32 %ID/g
- small intestine uptake ([2]; tumor volume 300-700 mm^3): 1.36 ± 0.45 %ID/g
- spleen uptake ([2]; tumor volume 300-700 mm^3): 1.70 ± 1.20 %ID/g
- stomach uptake ([2]; tumor volume 300-700 mm^3): 19.15 ± 6.40 %ID/g
- tumor uptake (perfusion) ([2]; tumor volume 300-700 mm^3): 2.94 ± 0.76 %ID/g
- blood uptake ([2]; tumor volume <300 mm^3): 3.13 ± 1.02 %ID/g
- bone uptake ([2]; tumor volume <300 mm^3): 1.10 ± 0.73 %ID/g
- brain uptake ([2]; tumor volume <300 mm^3): 0.14 ± 0.04 %ID/g
- excretion (urine and fecal material) ([2]; tumor volume <300 mm^3): 39.51 ± 22.40 %ID
- heart uptake ([2]; tumor volume <300 mm^3): 1.29 ± 0.61 %ID/g
- kidney uptake ([2]; tumor volume <300 mm^3): 1.85 ± 0.91 %ID/g
- large intestine uptake ([2]; tumor volume <300 mm^3): 1.52 ± 0.36 %ID/g
- liver uptake ([2]; tumor volume <300 mm^3): 2.51 ± 0.73 %ID/g
- lung uptake ([2]; tumor volume <300 mm^3): 2.86 ± 1.06 %ID/g
- muscle uptake ([2]; tumor volume <300 mm^3): 0.47 ± 0.20 %ID/g
- pancreas uptake ([2]; tumor volume <300 mm^3): 4.94 ± 4.84 %ID/g
- small intestine uptake ([2]; tumor volume <300 mm^3): 1.31 ± 0.31 %ID/g
- spleen uptake ([2]; tumor volume <300 mm^3): 2.84 ± 1.87 %ID/g
- stomach uptake ([2]; tumor volume <300 mm^3): 16.33 ± 4.08 %ID/g
- tumor uptake (perfusion) ([2]; tumor volume <300 mm^3): 2.23 ± 1.09 %ID/g
- blood uptake ([2]; tumor volume >700 mm^3): 3.96 ± 0.90 %ID/g
- bone uptake ([2]; tumor volume >700 mm^3): 0.85 ± 0.49 %ID/g
- brain uptake ([2]; tumor volume >700 mm^3): 0.16 ± 0.07 %ID/g
- excretion (urine and fecal material) ([2]; tumor volume >700 mm^3): 46.43 ± 13.26 %ID
- heart uptake ([2]; tumor volume >700 mm^3): 1.79 ± 0.87 %ID/g
- kidney uptake ([2]; tumor volume >700 mm^3): 1.45 ± 0.64 %ID/g
- large intestine uptake ([2]; tumor volume >700 mm^3): 2.14 ± 0.55 %ID/g
- liver uptake ([2]; tumor volume >700 mm^3): 3.02 ± 0.77 %ID/g
- lung uptake ([2]; tumor volume >700 mm^3): 3.34 ± 0.84 %ID/g
- muscle uptake ([2]; tumor volume >700 mm^3): 0.63 ± 0.24 %ID/g
- pancreas uptake ([2]; tumor volume >700 mm^3): 4.03 ± 3.24 %ID/g
- small intestine uptake ([2]; tumor volume >700 mm^3): 1.32 ± 0.78 %ID/g
- spleen uptake ([2]; tumor volume >700 mm^3): 1.80 ± 1.37 %ID/g
- stomach uptake ([2]; tumor volume >700 mm^3): 15.44 ± 3.98 %ID/g
- tumor uptake (perfusion) ([2]; tumor volume >700 mm^3): 3.19 ± 0.66 %ID/g
- average tumor uptake of perfusion tracer, orthotopic versus subcutaneous model ([2]; tumor volume 300–700 mm^3, p = 0.0001): 4.3 fold
- average tumor uptake of perfusion tracer, orthotopic versus subcutaneous model ([2]; tumor volume <300 mm^3, p = 0.0008): 4.1 fold
- average tumor uptake of perfusion tracer, orthotopic versus subcutaneous model ([2]; tumor volume >700 mm^3, p = 0.0001): 3.7 fold
